From PubChem BioAssay AID256 (DTP/NCI, 2004)
Values joined by “and” are separate entries in the source; they are usually repeats but may differ in a detail not shown here. Equal values may be shown once. Toxic doses and inconclusive results are not listed. How the source made its calls: active means survival T/C of 150% or more; inactive means T/C below 125% in these data.

Tested on: CD2F1 mice, L1210 leukemia ip, survival T/C
Test: NCI In Vivo Anticancer Drug Screen. Data for tumor model L1210 Leukemia (intraperitoneal) in CD2F1 (CDF1) mice
Settings: higher = longer survival
In short: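 Vehicle-treated tumor-bearing mice served as controls (C) for compound-treated mice (T). Reported figure is T divided by C.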

[1] = endpoint: mean survival time, dose: 50.0 mg/kg/injection, schedule: Q04DX003 (ip), vehicle: saline with Tween-80
[2] = endpoint: mean survival time, dose: 100.0 mg/kg/injection, schedule: Q04DX003 (ip), vehicle: saline with Tween-80
[3] = endpoint: mean survival time, dose: 200.0 mg/kg/injection, schedule: Q04DX003 (ip), vehicle: saline with Tween-80
[4] = endpoint: mean survival time, dose: 200.0 mg/kg/injection, schedule: Q01DX009 (ip), vehicle: saline with Tween-80
[5] = endpoint: mean survival time, dose: 400.0 mg/kg/injection, schedule: Q01DX009 (ip), vehicle: saline with Tween-80
[6] = endpoint: mean survival time, dose: 100.0 mg/kg/injection, schedule: Q04DX002 (ip), vehicle: saline with Tween-80
[7] = endpoint: mean survival time, dose: 200.0 mg/kg/injection, schedule: Q04DX002 (ip), vehicle: saline with Tween-80
[8] = endpoint: mean survival time, dose: 50.0 mg/kg/injection, schedule: Q01DX009 (ip), vehicle: saline
[9] = endpoint: mean survival time, dose: 100.0 mg/kg/injection, schedule: Q01DX009 (ip), vehicle: saline
[10] = endpoint: mean survival time, dose: 100.0 mg/kg/injection, schedule: Q01DX009 (ip), vehicle: saline with Tween-80
[11] = endpoint: mean survival time, dose: 400.0 mg/kg/injection, schedule: Q04DX003 (ip), vehicle: saline with Tween-80
[12] = endpoint: mean survival time, dose: 5.0 mg/kg/injection, schedule: Q01DX001 (ip), vehicle: saline
[13] = endpoint: mean survival time, dose: 10.0 mg/kg/injection, schedule: Q01DX001 (ip), vehicle: saline
[14] = endpoint: mean survival time, dose: 25.0 mg/kg/injection, schedule: Q01DX009 (ip), vehicle: water
[15] = endpoint: mean survival time, dose: 50.0 mg/kg/injection, schedule: Q01DX009 (ip), vehicle: water

Measured: T/C

CC([NH-])CC[NH-].[I][Pt+2][I] (configuration not stated)
inactive: endpoint: mean survival time, dose: 12.5 mg/kg/injection, schedule: Q04DX003 (ip), vehicle: saline with Tween-80 118 % of control | endpoint: mean survival time, dose: 25.0 mg/kg/injection, schedule: Q04DX003 (ip), vehicle: saline with Tween-80 124 % of control | [1] 109 % of control

COc1ccc(C(=O)C(CN(C)C)CN(C)C)cc1
inactive: endpoint: median survival time, dose: 3.12 mg/kg/injection, schedule: Q01DX009 (ip), vehicle: saline 96 % of control | endpoint: median survival time, dose: 6.25 mg/kg/injection, schedule: Q01DX009 (ip), vehicle: saline 103 % of control | endpoint: median survival time, dose: 12.5 mg/kg/injection, schedule: Q01DX009 (ip), vehicle: saline 104 % of control | endpoint: median survival time, dose: 25.0 mg/kg/injection, schedule: Q01DX009 (ip), vehicle: saline 114 % of control

O=[N+]([O-])c1[nH]c(Br)nc1Br
inactive: [2] 95 % of control | [3] 100 % of control

O=C(COc1ccccc1)N/N=C/c1cccc([N+](=O)[O-])c1
inactive: [4] 89 % of control | [5] 94 % of control

O=C1OC(=O)C2CCCC3CCCC1C32 (configuration not stated)
inactive: [6] 108 % of control | [7] 108 % of control

O=C(NNc1cccc(Cl)c1)C(O)C(O)C(O)C(O)CO (configuration not stated)
inactive: [8] 93 % of control | [9] 108 % of control | endpoint: mean survival time, dose: 200.0 mg/kg/injection, schedule: Q01DX009 (ip), vehicle: saline 96 % of control

Cc1nc2nc(N)[nH]c(=O)c2nc1C
inactive: endpoint: mean survival time, dose: 100.0 mg/kg/injection, schedule: Q01DX001 (ip), vehicle: saline with Tween-80 95 % of control | endpoint: mean survival time, dose: 200.0 mg/kg/injection, schedule: Q01DX001 (ip), vehicle: saline with Tween-80 98 % of control | endpoint: mean survival time, dose: 400.0 mg/kg/injection, schedule: Q01DX001 (ip), vehicle: saline with Tween-80 90 % of control

COC(=O)[C@]1(C)CCC[C@]2(C)[C@H]3CC4OO[C@@]3(CC[C@H]21)[C@H]1O[C@@]41C(C)C
inactive: [10] 97 % of control | endpoint: mean survival time, dose: 125.0 mg/kg/injection, schedule: Q01DX009 (ip), vehicle: Klucel (hydroxypropylcellulose) (HPC) 96 % of control | [4] 101 % of control | endpoint: mean survival time, dose: 250.0 mg/kg/injection, schedule: Q01DX009 (ip), vehicle: Klucel (hydroxypropylcellulose) (HPC) 96 % of control | [5] 98 % of control | endpoint: mean survival time, dose: 500.0 mg/kg/injection, schedule: Q01DX009 (ip), vehicle: Klucel (hydroxypropylcellulose) (HPC) 97 % of control

CC(=O)Nc1ccc([N+](=O)[O-])cc1C
inactive: [1] 101 % of control | [2] 100 % of control | [3] 103 % of control

CCOC(=O)C(CO)NC(=O)C[NH-].CCOC(=O)C(CO)NC(=O)C[NH-].[Cl][Pt+2][Cl] (configuration not stated)
inactive: endpoint: mean survival time, dose: 100.0 mg/kg/injection, schedule: Q04DX003 (ip), vehicle: saline 111 % of control | endpoint: mean survival time, dose: 200.0 mg/kg/injection, schedule: Q04DX003 (ip), vehicle: saline 111 % of control | endpoint: mean survival time, dose: 400.0 mg/kg/injection, schedule: Q04DX003 (ip), vehicle: saline 114 % of control

N#Cc1c(F)c(F)cc(F)c1F
inactive: [10] 100 % of control | [2] 96 % of control | [4] 96 % of control | [3] 96 % of control | [11] 93 % of control

OCC1OC(n2ccc3c(NO)ncnc32)C(O)C1O (configuration not stated)
inactive: [12] 111 % of control | [13] 118 % of control

O=C(CCl)Nc1cccc(Cl)c1
inactive: [10] 92 % of control | [2] 97 % of control | [4] 95 % of control | [3] 111 % of control | [11] 104 % of control

CCCC(C)(C)c1ccc(Cl)cc1
inactive: endpoint: mean survival time, dose: 50.0 mg/kg/injection, schedule: Q01DX009 (ip), vehicle: saline with Tween-80 96 % of control | [10] 104 % of control | [4] 104 % of control

CS(=O)(=O)OCC1NC(=O)C(COS(C)(=O)=O)NC1=O (configuration not stated)
inactive: endpoint: mean survival time, dose: 3.13 mg/kg/injection, schedule: Q01DX009 (ip), vehicle: water 103 % of control | endpoint: mean survival time, dose: 6.25 mg/kg/injection, schedule: Q01DX009 (ip), vehicle: water 101 % of control | endpoint: mean survival time, dose: 12.5 mg/kg/injection, schedule: Q01DX009 (ip), vehicle: water 105 % of control | [14] 106 % of control | [15] 101 % of control | endpoint: mean survival time, dose: 100.0 mg/kg/injection, schedule: Q01DX009 (ip), vehicle: water 100 % of control

CCCN(CCC)CN(CCC)CCC
inactive: [8] 98 % of control | [9] 105 % of control

Cn1cnc([N+](=O)[O-])c1S(=O)(=O)NCN1CCOCC1
inactive: endpoint: mean survival time, dose: 6.25 mg/kg/injection, schedule: Q01DX009 (ip), vehicle: Klucel (hydroxypropylcellulose) (HPC) 95 % of control | endpoint: mean survival time, dose: 12.5 mg/kg/injection, schedule: Q01DX009 (ip), vehicle: Klucel (hydroxypropylcellulose) (HPC) 118 % of control and 101 % of control | endpoint: mean survival time, dose: 25.0 mg/kg/injection, schedule: Q01DX009 (ip), vehicle: Klucel (hydroxypropylcellulose) (HPC) 101 % of control and 106 % of control | endpoint: mean survival time, dose: 50.0 mg/kg/injection, schedule: Q01DX009 (ip), vehicle: Klucel (hydroxypropylcellulose) (HPC) 95 % of control and 110 % of control | endpoint: mean survival time, dose: 100.0 mg/kg/injection, schedule: Q01DX009 (ip), vehicle: Klucel (hydroxypropylcellulose) (HPC) 96 % of control

CCOC(=O)C12CC=CC(CCC1)/C2=N\Nc1ccccc1 (configuration not stated)
inactive: [10] 108 % of control | [2] 105 % of control | [4] 103 % of control | [3] 103 % of control | [5] 103 % of control | [11] 92 % of control

c1ccc(N=C2CCCCC2)cc1
inactive: endpoint: mean survival time, dose: 100.0 mg/kg/injection, schedule: Q01DX001 (ip), vehicle: other 115 % of control | endpoint: mean survival time, dose: 100.0 mg/kg/injection, schedule: Q01DX001 (ip), vehicle: saline + Tween-80 + alcohol 98 % of control | endpoint: mean survival time, dose: 200.0 mg/kg/injection, schedule: Q01DX001 (ip), vehicle: other 93 % of control | endpoint: mean survival time, dose: 200.0 mg/kg/injection, schedule: Q01DX001 (ip), vehicle: saline + Tween-80 + alcohol 102 % of control | endpoint: mean survival time, dose: 400.0 mg/kg/injection, schedule: Q01DX001 (ip), vehicle: other 120 % of control | endpoint: mean survival time, dose: 400.0 mg/kg/injection, schedule: Q01DX001 (ip), vehicle: saline + Tween-80 + alcohol 103 % of control | endpoint: mean survival time, dose: 600.0 mg/kg/injection, schedule: Q01DX001 (ip), vehicle: saline + Tween-80 + alcohol 105 % of control

NC(N)=NO
inactive: [14] 113 % of control | [15] 124 % of control | endpoint: mean survival time, dose: 200.0 mg/kg/injection, schedule: Q01DX009 (ip), vehicle: water 117 % of control | endpoint: mean survival time, dose: 300.0 mg/kg/injection, schedule: Q01DX009 (ip), vehicle: water 116 % of control | endpoint: mean survival time, dose: 500.0 mg/kg/injection, schedule: Q01DX009 (ip), vehicle: water 124 % of control

COC(=O)N1c2ccc(OC)cc2C=CC1C#N (configuration not stated)
inactive: [10] 94 % of control | [2] 96 % of control | [4] 95 % of control | [3] 102 % of control | [5] 103 % of control | [11] 94 % of control

CC(O)CC1CCCC(CC(C)O)N1 (configuration not stated)
inactive: [12] 103 % of control | [13] 97 % of control | endpoint: mean survival time, dose: 20.0 mg/kg/injection, schedule: Q01DX001 (ip), vehicle: saline 103 % of control | endpoint: mean survival time, dose: 40.0 mg/kg/injection, schedule: Q01DX001 (ip), vehicle: saline 105 % of control | endpoint: mean survival time, dose: 75.0 mg/kg/injection, schedule: Q01DX001 (ip), vehicle: saline 98 % of control | endpoint: mean survival time, dose: 300.0 mg/kg/injection, schedule: Q01DX001 (ip), vehicle: saline 102 % of control

COC(=O)c1ccccc1I
inactive: [6] 107 % of control | [7] 96 % of control | endpoint: mean survival time, dose: 400.0 mg/kg/injection, schedule: Q04DX002 (ip), vehicle: saline with Tween-80 107 % of control
